Data set [1] can be described thus: Highest frequency of moderate liver toxicity observed during clinical trials, expressed as a percentage. [column '% BIOL' in source]. The note with it: human.
Data set [2] in a line: Proposed mechanism(s) of liver damage. [column 'MEC' in source]. The note with it: human.
Data set [3] can be described thus: Times to onset, minimal and maximal, observed in the indexed observations. [column 'DELAI' in source]. The conditions noted are these: human.
The conditions of data set [4]: human.
For data set [5] the following is noted: human. This is another data set of the same source.
The conditions of data set [6]: human. The source holds these as a separate data set.
The conditions of data set [7]: human. The source holds these as a separate data set.
The conditions of data set [8]: human. The source holds these as a separate data set.
For data set [9] the following is noted: human. This is another data set of the same source.
The conditions of data set [10]: human. This is another data set of the same source.
Data set [11] is described as follows: Presence of at least one case with successful reintroduction. [column 'REINT' in source]. The note with it: human.
For data set [12] the following is noted: human. The source holds these as a separate data set.
The conditions of data set [13]: human. The source holds these as a separate data set.
The conditions of data set [14]: human, serum.
For data set [15] the following is noted: human, serum, 4383 h.
Data set [16] is described as follows: Highest frequency of acute liver toxicity observed during clinical trials, expressed as a percentage. [column '% AIGUE' in source]. The conditions noted are these: human.
For data set [17] the following is noted: human, serum. This is another data set of the same source.
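Wherever Hepatotoxicity (association with vascular disease) is given: count of indexed literature references reporting vascular liver injury in humans, e.g. peliosis hepatitis, hepatic veno-occlusive disease or Budd-Chiari syndrome.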
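Wherever Hepatotoxicity (benign tumour) is given: value is a count of indexed literature references citing a benign tumour confirmed by histopathology.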
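Wherever Hepatotoxicity (choleostasis) is given: human cholestatic liver injury, shown by histopathology or by peak ALT or AST elevation over alkaline phosphatase ratio below 2, value counts indexed literature reports.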
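Wherever Hepatotoxicity (chronic liver disease) is given: chronic liver injury confirmed by histopathology or persistently raised serum aminotransferase activity beyond 6 months, value given as the count of indexed literature references.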
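Wherever Hepatotoxicity (cirrhosis) is given: value is a count of indexed literature references reporting cirrhosis confirmed by histopathology.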
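Wherever Hepatotoxicity (cytolytic) is given: human cytolytic liver injury, shown by histopathology or by a ratio above 5 of peak ALT or AST elevation to alkaline phosphatase elevation, value counts indexed references.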
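Wherever Hepatotoxicity (granulomatous hepatitis) is given: value is a count of indexed literature references reporting granulomatous liver disease confirmed by histopathology.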
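Wherever Hepatotoxicity (malignant tumour) is given: malignant tumour confirmed by histopathology, value gives the count of indexed literature references reporting it.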
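Wherever Hepatotoxicity (severe hepatitis) is given: human clinical data: severe hepatitis, meaning potentially life-threatening liver failure or clinically observed cases, the value counts how many indexed literature references report it.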
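Wherever Hepatotoxicity (steatosis) is given: steatosis confirmed by histopathology, value is the count of indexed references.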

On to `CC(C)N(CCC(C(N)=O)(c1ccccc1)c1ccccn1)C(C)C` (stereo not given) [DISOPYRAMIDE], for which the figures for the “Hepatotoxicity (moderate)” value in data set [1] and in data set [14] were 0.3% and 1, respectively. In addition, in data set [2], the “Hepatotoxicity (mechanism)” value is reported as “Allergic”. The “Hepatotoxicity (time to onset)” value in data set [3] turned out to be 2 weeks - 1 year. Further, in data set [4], the “Hepatotoxicity (benign tumour)” value is on record as 0. Moreover, in data set [5], the “Hepatotoxicity (choleostasis)” value worked out at 10. In addition, the “Hepatotoxicity (steatosis)” value in data set [6] is on record as 0. Further, the “Hepatotoxicity (severe hepatitis)” value in [7] stood at 0. In data set [8], the “Hepatotoxicity (cytolytic)” value came to 6. Further, the “Hepatotoxicity (granulomatous hepatitis)” value in data set [9] was 0. Besides, in data set [10], the “Hepatotoxicity (cirrhosis)” value is 0. For the same compound, in data set [11], the “Hepatotoxicity (successful reintroduction)” value was “yes”. For the same compound, the “Hepatotoxicity (association with vascular disease)” value in data set [12] was found to be 0. In [13], the “Hepatotoxicity (malignant tumour)” value was found to be 0. For the same compound, the “Hepatotoxicity (chronic liver disease)” value in [15] is 1. The “Hepatotoxicity (acute)” value is recorded as 0.1% in data set [16] and 14 in [17].

Consider `CC[C@@H](CO)NCCN[C@@H](CC)CO` [ETHAMBUTOL], for which the “Hepatotoxicity (moderate)” value came out at 0% in data set [1] and 1 in [14]. Besides, in data set [2], the “Hepatotoxicity (mechanism)” value is “Allergic”. Moreover, the “Hepatotoxicity (time to onset)” value in data set [3] is 1.5 months - 2 months. In addition, in data set [4], the “Hepatotoxicity (benign tumour)” value was 0. In addition, the “Hepatotoxicity (choleostasis)” value in data set [5] came out at 1. The “Hepatotoxicity (steatosis)” value in data set [6] worked out at 0. The “Hepatotoxicity (severe hepatitis)” value in [7] was 0. Further, the “Hepatotoxicity (cytolytic)” value in [8] was found to be 1. Further, in data set [9], the “Hepatotoxicity (granulomatous hepatitis)” value is reported as 0. Moreover, the “Hepatotoxicity (cirrhosis)” value in data set [10] turned out to be 0. In addition, the “Hepatotoxicity (successful reintroduction)” value in data set [11] was “yes”. Moreover, the “Hepatotoxicity (association with vascular disease)” value in [12] worked out at 0. For the same compound, the “Hepatotoxicity (malignant tumour)” value in [13] stood at 0. Further, the “Hepatotoxicity (chronic liver disease)” value in data set [15] is 0. For the same compound, the “Hepatotoxicity (acute)” value in data set [16] was determined as 0%; in data set [17] it was 6.

For the compound `CCc1cc(C(N)=S)ccn1` [ETHIONAMIDE], the results for the “Hepatotoxicity (moderate)” value in data set [1] (Liver) and in data set [14] were 37% and 11, respectively. Also, the “Hepatotoxicity (mechanism)” value in data set [2] (Liver) is on record as “Allergic”. Moreover, in [3], the “Hepatotoxicity (time to onset)” value was 1 month - 2 years. Also, the “Hepatotoxicity (benign tumour)” value in data set [4] worked out at 0. Also, in [5] (Liver), the “Hepatotoxicity (choleostasis)” value turned out to be 6. Also, the “Hepatotoxicity (steatosis)” value in data set [6] was 0. For the same compound, the “Hepatotoxicity (severe hepatitis)” value in [7] (Liver) was 2. Also, in [8] (Liver), the “Hepatotoxicity (cytolytic)” value was 7. Moreover, the “Hepatotoxicity (granulomatous hepatitis)” value in [9] (Liver) was 0. The “Hepatotoxicity (cirrhosis)” value in [10] is on record as 0. Also, in data set [11], the “Hepatotoxicity (successful reintroduction)” value is recorded as “yes”. Besides, the “Hepatotoxicity (association with vascular disease)” value in data set [12] came to 0. Also, the “Hepatotoxicity (malignant tumour)” value in data set [13] amounted to 0. Moreover, the “Hepatotoxicity (chronic liver disease)” value in data set [15] is 0. In addition, the “Hepatotoxicity (acute)” value is 5.4% in data set [16] (Liver) and 15 in data set [17].

With `OC(Cn1cncn1)(Cn1cncn1)c1ccc(F)cc1F` [FLUCONAZOLE], the “Hepatotoxicity (moderate)” value in [1] (Liver) is listed as 83.3%; in data set [14] it was 84. Moreover, the “Hepatotoxicity (mechanism)” value in data set [2] (Liver) is reported as “Dose-dependant”. Also, the “Hepatotoxicity (time to onset)” value in [3] is listed as 2 days - 10 months. The “Hepatotoxicity (benign tumour)” value in [4] was found to be 0. For the same compound, the “Hepatotoxicity (choleostasis)” value in [5] (Liver) was 13. The “Hepatotoxicity (steatosis)” value in [6] is given as 1. Further, in data set [7] (Liver), the “Hepatotoxicity (severe hepatitis)” value worked out at 7. Also, in [8] (Liver), the “Hepatotoxicity (cytolytic)” value is on record as 15. In addition, the “Hepatotoxicity (granulomatous hepatitis)” value in [9] (Liver) is listed as 1. Moreover, the “Hepatotoxicity (cirrhosis)” value in data set [10] was 0. In addition, the “Hepatotoxicity (successful reintroduction)” value in data set [11] was “yes”. Besides, the “Hepatotoxicity (association with vascular disease)” value in data set [12] came out at 0. For the same compound, in data set [13], the “Hepatotoxicity (malignant tumour)” value turned out to be 0. The “Hepatotoxicity (chronic liver disease)” value in data set [15] came out at 0. The “Hepatotoxicity (acute)” value in data set [16] (Liver) worked out at 6.3%; in data set [17] it was 25.

With `Nc1nc(O)c2ncn(COC(CO)CO)c2n1` [GANCICLOVIR], the “Hepatotoxicity (moderate)” value in data set [1] was 55%; in [14], 9. For the same compound, the “Hepatotoxicity (mechanism)” value in data set [2] is reported as “Dose-dependant”. Further, the “Hepatotoxicity (time to onset)” value in [3] is 1 week - 26 days. The “Hepatotoxicity (benign tumour)” value in data set [4] turned out to be 0. In data set [5], the “Hepatotoxicity (choleostasis)” value is 1. In addition, in data set [6], the “Hepatotoxicity (steatosis)” value is listed as 0. The “Hepatotoxicity (severe hepatitis)” value in data set [7] worked out at 0. Besides, the “Hepatotoxicity (cytolytic)” value in data set [8] is given as 1. Moreover, the “Hepatotoxicity (granulomatous hepatitis)” value in data set [9] is listed as 0. Further, the “Hepatotoxicity (cirrhosis)” value in data set [10] came out at 0. Further, in data set [11], the “Hepatotoxicity (successful reintroduction)” value is “yes”. Moreover, the “Hepatotoxicity (association with vascular disease)” value in data set [12] is recorded as 0. The “Hepatotoxicity (malignant tumour)” value in data set [13] worked out at 0. For the same compound, the “Hepatotoxicity (chronic liver disease)” value in [15] came out at 0. Besides, the figures for the “Hepatotoxicity (acute)” value in data set [16] and in data set [17] were 0% and 1, respectively.
